Assay results reported in publication PMC6079014, “Calcium is an essential cofactor for metal efflux by the ferroportin transporter family” (Nature Communications, 2018).

Molecular target: T1, Fpn-C2-E219A (Mus musculus, UniProt Q9JHI9, DEL251-290/DEL401-449/E219A)
T1 construct: generated from full-length mouse Fpn (UniProt: Q9JHI9); GFP (C); made in house; host or cells: Sf9 insect cells (baculovirus)
T1 sequence (Q9JHI9 with tags, fused parts or gaps E219A/DEL251-290/DEL401-449): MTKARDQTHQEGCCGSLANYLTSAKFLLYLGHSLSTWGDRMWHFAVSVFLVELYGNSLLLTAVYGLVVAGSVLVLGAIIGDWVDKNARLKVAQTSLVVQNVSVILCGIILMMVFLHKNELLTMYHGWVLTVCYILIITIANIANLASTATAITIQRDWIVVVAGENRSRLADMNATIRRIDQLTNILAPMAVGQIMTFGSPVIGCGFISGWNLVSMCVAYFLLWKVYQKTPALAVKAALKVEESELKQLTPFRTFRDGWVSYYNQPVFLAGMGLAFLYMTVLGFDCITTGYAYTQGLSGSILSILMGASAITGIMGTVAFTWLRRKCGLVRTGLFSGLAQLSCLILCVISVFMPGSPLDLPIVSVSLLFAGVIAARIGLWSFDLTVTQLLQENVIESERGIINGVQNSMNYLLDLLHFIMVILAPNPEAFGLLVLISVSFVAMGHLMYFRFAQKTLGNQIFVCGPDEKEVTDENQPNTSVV
Test: Isothermal titration calorimetry, Fpn-C2-E219A mutant
Type: binding
Description: To obtain a purified mammalian Fpn protein conducive for biophysical studies, we generated a protein construct with an increased thermal stability (Deshpande et al., 2018). In brief, the construct (Fpn-C2) was generated from full-length mouse Fpn (UniProt: Q9JHI9 [https://www.uniprot.org/uniprot/Q9JHI9]) by deleting two-loop regions (residues 251–290 and 401–449), followed by an overlapping PCR incorporating the E219A mutation to generate Fpn-C2-E219A. […]
For Fpn-C2 and Fpn-C2-E219A purification (Deshpande et al., 2018), Sf9 cells were thawed at room temperature with the addition of 2 μl Benzonase (250 units/μL, Sigma-Aldrich), 1 mM MgSO4, 0.2 mM PMSF, and lysed by a single pass through cooled EmulsiFlex-C3 homogenizer (Avestin). […] The SEC eluted protein was concentrated to ~10 mg/ml as determined by the BCA assay (Thermo Fisher Scientific) method and stored at −80 °C until further use. […]
In each experiment, the protein solution was loaded into the sample cell, and the ligand solution was loaded in the syringe. […] To obtain the effective heat of binding, the heat of dilution, measured by injecting the ligand solution alone into buffer, was subtracted prior to data analysis. […]

[Ca+2] [Ca^2+, calcium]
Binding to Fpn-C2-E219A by ITC (in words): no binding
